# Results: the supplement of paper PMC6045584
# ± gives the standard deviation of the averaged measurements.
# How the values were obtained:
# NILOTINIB = compound: Cc1cn(-c2cc(NC(=O)c3ccc(C)c(Nc4nccc(-c5cccnc5)n4)c3)cc(C(F)(F)F)c2)cn1 [NILOTINIB]; assay: surviving fraction relative to DMSO-only wells; higher = less growth inhibition; settings: exposure time: 5 days
# Procedure, shortened: (§1)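 In 384-well plates, 250–500 log-phase tumour cells per well were given 24 hours before five days of continuous exposure to inhibitors at 0.5, 1, 5, 10, 50, 100, 500 and 1000 nM. Surviving fraction is luminescence from CellTiter-Glo, normalised to the median of wells containing DMSO alone. Reading took place after 10 minutes at room temperature.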
# [1] = compound: CCc1cc(Nc2nccc(-c3c(-c4ccc(OC)c(C(=O)Nc5c(F)cccc5F)c4)nc4ccccn34)n2)c(OC)cc1N1CCC(N2CCN(S(C)(=O)=O)CC2)CC1; assay: as above; settings: exposure time: 5 days
# Procedure, shortened: as §1
Test System,surviving fraction (NILOTINIB; 0.5 nM),surviving fraction (NILOTINIB; 1 nM),surviving fraction (NILOTINIB; 5 nM),surviving fraction (NILOTINIB; 10 nM),surviving fraction (NILOTINIB; 50 nM),surviving fraction (NILOTINIB; 100 nM),surviving fraction (NILOTINIB; 500 nM),surviving fraction (NILOTINIB; 1000 nM),surviving fraction ([1]; 0.5 nM),surviving fraction ([1]; 1 nM),surviving fraction ([1]; 5 nM),surviving fraction ([1]; 10 nM),surviving fraction ([1]; 50 nM),surviving fraction ([1]; 100 nM),surviving fraction ([1]; 500 nM),surviving fraction ([1]; 1000 nM)
HCC1395 BREAST,1.01 ± 0.038,0.988 ± 0.097,1.2 ± 0.074,1.19 ± 0.023,1.03 ± 0.055,1.03 ± 0.16,0.854 ± 0.062,0.929 ± 0.14,0.903 ± 0.1,0.903 ± 0.17,0.965 ± 0.24,0.916 ± 0.037,1.13 ± 0.2,0.831 ± 0.19,0.855 ± 0.22,0.934 ± 0.17
HCC1806 BREAST,0.977 ± 0.016,0.97 ± 0.048,1.1 ± 0.14,1.02 ± 0.067,0.844 ± 0.088,0.755 ± 0.083,0.666 ± 0.044,0.781 ± 0.026,1.05 ± 0.032,0.985 ± 0.042,1.04 ± 0.025,1.05 ± 0.1,0.993 ± 0.1,1.03 ± 0.13,0.93 ± 0.13,0.904 ± 0.085
HCC1954 BREAST,0.917 ± 0.15,0.891 ± 0.032,0.936 ± 0.059,0.969 ± 0.019,0.589 ± 0.0085,0.677 ± 0.12,0.8063 ± 0.0032,0.739 ± 0.077,0.996 ± 0.012,0.821 ± 0.02,0.904 ± 0.12,1.1 ± 0.052,0.982 ± 0.06,1 ± 0.1,0.913 ± 0.11,0.638 ± 0.068
HCT15 LARGE INTESTINE,1.05 ± 0.082,1.01 ± 0.071,1.07 ± 0.12,1.09 ± 0.12,1.09 ± 0.1,1.12 ± 0.037,1.05 ± 0.11,1.06 ± 0.091,0.963 ± 0.028,0.995 ± 0.028,0.99 ± 0.027,1.03 ± 0.03,1 ± 0.02,1.05 ± 0.016,1.12 ± 0.036,1.06 ± 0.017
HELA CERVIX,1.05 ± 0.016,1.03 ± 0.053,1.09 ± 0.034,1 ± 0.033,1.09 ± 0.079,1.06 ± 0.073,1.15 ± 0.074,1.091 ± 0.0094,1.05 ± 0.035,1.07 ± 0.04,1.08 ± 0.027,1.09 ± 0.041,1.05 ± 0.05,1.07 ± 0.025,1.01 ± 0.066,0.97 ± 0.026
